# Assay results published in patent US5650154A (priority 1989, dated 1997).
# Test system: polyclonal serum raised against the native antigen
# Test: Reaction of peptide with polyclonal serum raised against the native antigen
# Format: binding, rabbits
# Conditions: rabbit serum
sequence,measurement,value
"ELVALSNSITAQQMAMMAZASPA [Peptide (b), Tryptic peptide of the H. contortus antigen purified by HPLC]",reaction with polyclonal serum raised against the native antigen,reacts strongly
